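Five compound concentrations were applied to cells in 96-well plates for 48 hours; endpoints were derived by simple linear interpolation of the resulting dose-response curve. TGI: concentration producing complete growth inhibition.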
Experiments:
Experiment in all cases: NCI anticancer screen, dose series, 48 h
A549 NSCLC = system: A549 NSCLC
RPMI-8226 leukemia = system: RPMI-8226 leukemia
DMS 114 small cell lung = system: DMS 114 small cell lung
HCC-2998 colon = system: HCC-2998 colon
HOP-92 NSCLC = system: HOP-92 NSCLC
EKVX NSCLC = system: EKVX NSCLC
U251 CNS = system: U251 CNS
UO-31 renal = system: UO-31 renal
IGROV1 ovarian = system: IGROV1 ovarian
ACHN renal = system: ACHN renal
A498 renal = system: A498 renal
SN12C renal = system: SN12C renal
SNB-75 CNS = system: SNB-75 CNS
MOLT-4 leukemia = system: MOLT-4 leukemia
SF-539 CNS = system: SF-539 CNS
DLD-1 colon = system: DLD-1 colon
OVCAR-4 ovarian = system: OVCAR-4 ovarian
M14 melanoma = system: M14 melanoma
UACC-62 melanoma = system: UACC-62 melanoma
SF-295 CNS = system: SF-295 CNS
786-0 renal = system: 786-0 renal
RXF 393 renal = system: RXF 393 renal
NCI-H522 lung = system: NCI-H522 lung
HOP-18 NSCLC = system: HOP-18 NSCLC
HCT-15 colon = system: HCT-15 colon
OVCAR-8 ovarian = system: OVCAR-8 ovarian
SK-OV-3 ovarian = system: SK-OV-3 ovarian
MALME-3M melanoma = system: MALME-3M melanoma
HOP-62 NSCLC = system: HOP-62 NSCLC
M19-MEL melanoma = system: M19-MEL melanoma
COLO 205 colon = system: COLO 205 colon
HCT-116 colon = system: HCT-116 colon
SK-MEL-28 melanoma = system: SK-MEL-28 melanoma
LXFL 529 NSCLC = system: LXFL 529 NSCLC
CCRF-CEM leukemia = system: CCRF-CEM leukemia
NCI-H23 lung = system: NCI-H23 lung
SNB-19 CNS = system: SNB-19 CNS
DMS 273 small cell lung = system: DMS 273 small cell lung
SR leukemia = system: SR leukemia
SNB-78 CNS = system: SNB-78 CNS
SW-620 colon = system: SW-620 colon
SK-MEL-5 melanoma = system: SK-MEL-5 melanoma
K-562 leukemia = system: K-562 leukemia
NCI-H226 lung = system: NCI-H226 lung
SF-268 CNS = system: SF-268 CNS
HT29 colon = system: HT29 colon
HL-60(TB) leukemia = system: HL-60(TB) leukemia
KM20L2 colon = system: KM20L2 colon
UACC-257 melanoma = system: UACC-257 melanoma
LOX IMVI melanoma = system: LOX IMVI melanoma
OVCAR-3 ovarian = system: OVCAR-3 ovarian
SK-MEL-2 melanoma = system: SK-MEL-2 melanoma
NCI-H460 lung = system: NCI-H460 lung
XF 498 CNS = system: XF 498 CNS
OVCAR-5 ovarian = system: OVCAR-5 ovarian
TK-10 renal = system: TK-10 renal
KM12 colon = system: KM12 colon

## COc1ccc2c3ccc4c(c3n(C)c2c1)C(=O)c1ccccc1C4=O
A549 NSCLC
  TGI: > 100 µM
RPMI-8226 leukemia
  TGI: > 100 µM
DMS 114 small cell lung
  TGI: > 100 µM
HCC-2998 colon
  TGI: > 100 µM
HOP-92 NSCLC
  TGI: > 100 µM
EKVX NSCLC
  TGI: > 100 µM
U251 CNS
  TGI: > 100 µM
UO-31 renal
  TGI: > 100 µM
IGROV1 ovarian
  TGI: > 100 µM
ACHN renal
  TGI: > 100 µM
A498 renal
  TGI: > 100 µM
SN12C renal
  TGI: > 100 µM
SNB-75 CNS
  TGI: > 100 µM
MOLT-4 leukemia
  TGI: > 100 µM
SF-539 CNS
  TGI: > 100 µM
DLD-1 colon
  TGI: > 100 µM
OVCAR-4 ovarian
  TGI: > 100 µM
M14 melanoma
  TGI: > 100 µM
UACC-62 melanoma
  TGI: > 100 µM
SF-295 CNS
  TGI: > 100 µM
786-0 renal
  TGI: > 100 µM
RXF 393 renal
  TGI: > 100 µM
NCI-H522 lung
  TGI: > 100 µM
HOP-18 NSCLC
  TGI: > 100 µM
HCT-15 colon
  TGI: > 100 µM
OVCAR-8 ovarian
  TGI: > 100 µM
SK-OV-3 ovarian
  TGI: > 100 µM
MALME-3M melanoma
  TGI: > 100 µM
HOP-62 NSCLC
  TGI: > 100 µM
M19-MEL melanoma
  TGI: > 100 µM
COLO 205 colon
  TGI: > 100 µM
HCT-116 colon
  TGI: > 100 µM
SK-MEL-28 melanoma
  TGI: > 100 µM
LXFL 529 NSCLC
  TGI: > 100 µM
CCRF-CEM leukemia
  TGI: > 100 µM
NCI-H23 lung
  TGI: > 100 µM
SNB-19 CNS
  TGI: > 100 µM
DMS 273 small cell lung
  TGI: > 100 µM
SR leukemia
  TGI: > 100 µM
SNB-78 CNS
  TGI: > 100 µM
SW-620 colon
  TGI: > 100 µM
SK-MEL-5 melanoma
  TGI: > 100 µM
K-562 leukemia
  TGI: > 100 µM
NCI-H226 lung
  TGI: > 100 µM
SF-268 CNS
  TGI: > 100 µM
HT29 colon
  TGI: > 100 µM
HL-60(TB) leukemia
  TGI: > 100 µM
KM20L2 colon
  TGI: > 100 µM
UACC-257 melanoma
  TGI: > 100 µM

## COC(=O)c1ccc(N=NN(C)CO)cc1
A549 NSCLC
  TGI: > 100 µM
RPMI-8226 leukemia
  TGI: > 100 µM
LOX IMVI melanoma
  TGI: > 100 µM
DMS 114 small cell lung
  TGI: > 100 µM
HCC-2998 colon
  TGI: > 100 µM
EKVX NSCLC
  TGI: > 100 µM
U251 CNS
  TGI: > 100 µM
OVCAR-3 ovarian
  TGI: > 100 µM
UO-31 renal
  TGI: > 100 µM
IGROV1 ovarian
  TGI: > 100 µM
ACHN renal
  TGI: > 100 µM
A498 renal
  TGI: > 100 µM
SN12C renal
  TGI: > 100 µM
SNB-75 CNS
  TGI: > 100 µM
MOLT-4 leukemia
  TGI: > 100 µM
SK-MEL-2 melanoma
  TGI: > 100 µM
SF-539 CNS
  TGI: > 100 µM
DLD-1 colon
  TGI: > 100 µM
NCI-H460 lung
  TGI: > 100 µM
OVCAR-4 ovarian
  TGI: > 100 µM
M14 melanoma
  TGI: > 100 µM
UACC-62 melanoma
  TGI: > 100 µM
SF-295 CNS
  TGI: > 100 µM
786-0 renal
  TGI: > 100 µM
RXF 393 renal
  TGI: > 100 µM
NCI-H522 lung
  TGI: > 100 µM
XF 498 CNS
  TGI: 9.97 µM
HCT-15 colon
  TGI: > 100 µM
OVCAR-8 ovarian
  TGI: > 100 µM
SK-OV-3 ovarian
  TGI: > 100 µM
MALME-3M melanoma
  TGI: > 100 µM
HOP-62 NSCLC
  TGI: > 100 µM
M19-MEL melanoma
  TGI: > 100 µM
OVCAR-5 ovarian
  TGI: > 100 µM
COLO 205 colon
  TGI: > 100 µM
HCT-116 colon
  TGI: > 100 µM
SK-MEL-28 melanoma
  TGI: > 100 µM
LXFL 529 NSCLC
  TGI: > 100 µM
CCRF-CEM leukemia
  TGI: > 100 µM
NCI-H23 lung
  TGI: > 100 µM
SNB-19 CNS
  TGI: > 100 µM
DMS 273 small cell lung
  TGI: > 100 µM
SR leukemia
  TGI: > 100 µM
SNB-78 CNS
  TGI: > 100 µM
SW-620 colon
  TGI: > 100 µM
SK-MEL-5 melanoma
  TGI: > 100 µM
K-562 leukemia
  TGI: > 100 µM
TK-10 renal
  TGI: > 100 µM
NCI-H226 lung
  TGI: > 100 µM
KM12 colon
  TGI: > 100 µM
HT29 colon
  TGI: > 100 µM
HL-60(TB) leukemia
  TGI: > 100 µM
KM20L2 colon
  TGI: > 100 µM
UACC-257 melanoma
  TGI: > 100 µM

Reference: PubChem BioAssay (NCI)
